The record followed here is US20220349876A1, “USE OF DKK1 INHIBITOR IN PREVENTION AND/OR TREATMENT OF TUMOR CACHEXIA AND DISEASES ASSOCIATED WITH DIABETES” (SHANGHAI DONGTSU BIOSCIENCES CO., LTD., priority 2019, published 2022).

One assay deals with Leptin−/− mice. The experiment in a line: Leptin−/− mice injected with D-glucose, MDC rescue. The class given is in vivo, mouse. The settings on record: 6-week-old Leptin−/− mice, D-glucose every 2 h for 24 h. How it is done:
The in vivo rescue experiment of MDC in Leptin^−/− mice was performed by pre-intraperitoneal injection of MDC in 6-week-old Leptin^−/− mice (diluted in sterile PBS, 10 mg/kg) or the corresponding volume of DMSO (diluted in sterile PBS). The injected dose of MDC in Leptin^−/− mice should be calculated based on the body weight of 6-week-old littermates of WT mice. After 1 h of MDC intervention, 50% D-glucose or the corresponding volume of PBS was injected intraperitoneally. The procedure of injecting D-glucose into Leptin^−/− mice was as follows: 12 injections were performed every 2 hours during the 24-hour period, and the injection dose of D-glucose was fixed at the first dose (2 g/kg).

Assay [1] deals with CT26 tumor-bearing mice. The experiment in a line: Survival of CT26 tumor-bearing mice (Kaplan-Meier). As to conditions: mouse, in vivo.
In assay [2] the test system is CT26 tumor-bearing mice. The assay can be described thus: Tumor cachexia in CT26 tumor-bearing mice: tumor-free body weight, muscle weight, muscle membrane proteins. The class given is in vivo, mouse.
Another assay deals with wild-type mice heart. The experiment in a line: Local injection of Dkk1 protein into the heart combined with MDC or BIM-46187. The class given is in vivo, mouse. The method, then: In the experiment of local injection of Dkk1 purified protein into the heart combined with MDC intervention, 10-week-old wild-type male mice were selected, the left chest was depilated, and intraperitoneal injection of MDC (diluted in sterile PBS, 10 mg/kg) or the corresponding volume of DMSO (diluted in sterile PBS) and injected at the same time every day thereafter. After 1 h of MDC intervention, cardiac Dkk1 protein injection was performed. The mice were given continuous inhalation anesthesia with 1% isoflurane and oxygenated with a ventilator, and then the fourth intercostal space near the sternum was opened to expose the heart. Using a 200 μl microsyringe, Dkk1 (10 μg of Dkk1 per heart, dissolved in 30 μl PBS) or an equal volume of PBS was injected locally at three sites in the heart. Of these, two sites are on the border around the left ventricle, and one site enters the myocardium of the left ventricle. After the injection, the wound was sutured, the anesthesia was removed, and the mice were awake. After MDC was continuously intervened for 2 days, the mice were anesthetized and the materials were collected.
In addition to injecting Dkk1 protein alone into the heart, we also need to perform experiments of local injection of Dkk1 combined with BIM-46187 into mouse hearts. According to the experimental grouping, it was divided into cardiac injections of four different solutions, including PBS, Dkk1, BIM-46187, and a mixture of Dkk1 and BIM-46187. The dosage of Dkk1 per heart is 10 μg, and the dosage of BIM-46187 is 2.4 ng, diluted with 30 μl PBS and then injected into the heart. The specific operation steps are the same as above. After the injection, the wound was sutured, the anesthesia was removed, and the mice were awake. Two days after the injection, the mice were anesthetized and the materials were collected.

Assay [3] concerns STZ-induced diabetic mice. The experiment in a line: STZ-induced type 1 diabetes mouse model with insulin or MDC rescue. It counts as in vivo. How it is done:
STZ-induced diabetes is a chemical modeling method for diabetes. Its full name is streptozotocin, which is a broad-spectrum antibiotic isolated from achromatic streptomycin. It can selectively damage islet 13 cells in a short period of time, causing 13 cell necrosis, resulting in varying degrees of blood insulin drop and blood sugar rise, resulting in insulin-dependent type 1 diabetes mellitus. […] Modelling criteria are non-fasting blood glucose values above 13.8 mM (250 mg/dl). The modeling steps are as follows: (4) According to the body weight, mice in the model group were injected intraperitoneally with 2% STZ-citric acid solution (160 mg/kg), and the mice in the control group were intraperitoneally injected with the corresponding volume of citrate buffer. 2 h after the injection, the mice were fed back. […] Specific steps are as follows: (3) According to the body weight, the insulin rescue group was subcutaneously injected with diluted insulin (1 U/kg/day), once a day at the same time for 7 consecutive days, and the control group was given a corresponding volume of normal saline. […] Body weight and random blood glucose were measured at different time points after injection. […] (1) Sample preparation: Store the freshly obtained mouse blood in an EDTA anticoagulation tube, stand at room temperature for 10 min, centrifuge at 1000 g for 15 min, and collect the supernatant, namely plasma. If it cannot be detected immediately, it should be subpackaged and stored at −80° C. to avoid repeated freezing. If precipitation occurs during storage, it should be fully thawed at room temperature before use, and centrifuged again.

A further assay relates to β-arrestin1/2. The assay can be described thus: β-arrestin1/2 translocation in HUVEC cells (Western blot). It counts as cell-based. As to conditions: MDC pretreatment. How it is done:
(5) Add 100 μl (cell) or 200 μl (tissue) A solution to each sample, and resuspend the cell pellet with a pipette to completely disperse the pellet. The tissue pellet should be fully homogenized on ice with a homogenizer, and the ice bath should be used for 15 min.
(10) Add 50 μl (cells) or 100 μl (tissue) B solution to each sample, resuspend the pellet in Vortex at the highest speed for 10 s, ice bath for 10 min, and repeat twice to fully extract membrane proteins.
(§1) Protein electrophoresis gels are double-layered gels, including an upper stacking gel and a lower separating gel. The concentration of the stacking gel is 5%, and the concentration of the separating gel is determined according to the molecular weight of the target protein. In this study, large molecular weight proteins (LRP5/6, β-catenin, β-arrestin1/2) used 8%-5% double-layer gel, and small molecular weight proteins (γH2AX, p53, p21, Bcl-2, Bax, Cleaved Caspase-3) used 12%-5% double-layer gel. In addition, the number of wells (10 wells or 15 wells) and thickness (1 mm or 1.5 mm) of the preparation gel were selected according to the number and volume of protein samples loaded. The gel formulation is shown in the experimental material section, and the preparation steps are as follows: […]
A general note: In western blotting, separated proteins are transferred to a membrane and probed.

The subject of a further assay is HUVEC cells. The assay can be described thus: γH2AX DNA damage response in HUVEC cells (Western blot). It counts as cell-based. How it is done:
(2) The transfection system of a 3.5 cm petri dish was prepared as follows: 1 μl of siRNA Oligo/Red (concentration of the original solution was 20 μM) was added to an EP tube containing 250 μl of pure Opti-MEM and mixed, and 1.5 μl of RNAiMAX (transfection Reagent) was added to the flow tube containing 250 μl of pure Opti-MEM and mixed, and then all the liquid in the EP tube was added to the flow tube and mixed, and allowed to stand at room temperature for 15 min.
(3) The prepared transfection system was added to a 3.5 cm culture dish, and the cells were cultured for 24-48 h, then the samples were collected and the total cell protein was extracted, and the knockdown effect of the gene was identified by Western Blotting.
(3) Add 150 μl of total protein lysate to each cell sample to make the lysate fully contact with the cells, scrape off the cell lysate with a scraper, collect it into a pre-cooled EP tube, and take an ice bath for 15 min.
as §1

Another assay has as its system LRP6 and Kremen2. The experiment in a line: Intramuscular injection of Dkk1, Western blot of membrane LRP6 and Kremen2. It counts as in vivo, mouse. As to conditions: simultaneous injection with Dkk1. The method, then: Wild-type mice and β-arrestin2+/−KO mice were injected into the left quadriceps (0.25 mg/kg) and an equal volume of PBS was injected into the right leg as controls. MDC (10 mg/kg), IGFBP-4/H95P (1.7 mg/kg) or PBS were injected in combination with Dkk1 as a control to observe the effects of drugs on Dkk1-induced signal transduction. After 48 hours, the mice were sacrificed, and the left and right quadriceps were taken to measure the […].
Membrane proteins were extracted according to the instructions of Membrane Protein Extraction Kit (Sangon Biotech, China). Western blot analysis omitted. Antibodies for WB analysis were purchased from Cell Signaling Technology and Proteintech.

“Also recorded” adds a separate entry of the source.

As for `CN(C)c1cccc2c(S(=O)(=O)NCCCCCN)cccc12` [MDC], in the assay with Leptin−/− mice, the “down-regulation of LRP5/6 on cardiac membranes induced by glucose injection” value is listed as “significantly reversed the down-regulation of LRP5/6 on cardiac membranes” and the “up-regulation of molecular markers of injury induced by glucose injection” value was “significantly reversed”. The “death / shortened survival of tumor-bearing mice induced by Dkk1 injection” value in the assay with CT26 tumor-bearing mice [1] is “prolong the shortening of survival in tumor-bearing mice caused by Dkk1; also recorded: inhibit the rapid death of tumor-bearing mice induced by Dkk1 injection”. Also, in the assay on CT26 tumor-bearing mice [1] (ip), the “survival of tumor-bearing mice” value was “prolongs the survival of CT26 mice”. Besides, the “loss of body weight and muscle weight” value in the assay with CT26 tumor-bearing mice [2] is “reverse tumor-induced loss of tumor-free body weight and muscle atrophy; also recorded: completely prevents the loss of body weight and muscle weight”. In addition, in the assay on CT26 tumor-bearing mice [2] (Western blot), the “downregulation of LRP6 and Kremen2 on membrane in muscle” value was “reverses downregulation of LRP6 and Kremen2 on membrane”. Further, the “Dkk1-induced cardiac β-arrestin1/2 translocation” value with wild-type mice heart (Dkk1 intracardiac injection with MDC or BIM-46187) is given as “inhibited”. The “Dkk1-induced cardiac changes (LRP5/6, γH2AX, p53, p21)” value with wild-type mice heart (Dkk1 intracardiac injection with MDC pretreatment or combined with BIM-46187) is given as “reversed”. In addition, in assay [3] (STZ diabetic mice), the “blood 8-OHdG (ELISA)” value is “prevented the elevation of 8-OHdG”, the blood glucose concentration result is reported as “without altering blood glucose concentrations; also recorded: do not alter blood glucose levels” and the “body weight loss of diabetic mice” value is given as “inhibits; also recorded: suppressed”. For the same molecule, in assay [3] (STZ diabetic mice, heart), the “cardiac p53, p21, Bax/Bcl-2 and Cleaved Caspase-3” value is “inhibits the upregulation of p53, p21, Bax/Bcl-2 and Cleaved Caspase-3”; the “cardiac γH2AX” value is “γH2AX activation in diabetic hearts can also be inhibited”; the “damage to myocardial structure (HE staining)” value is “prevented”; the “translocation of cardiac β-arrestin1/2 in diabetic hearts” value is given as “prevented”. Also, the “overall LRP5/6 and nuclear or overall β-catenin expression levels” value in assay [3] (STZ diabetic mice, heart, MDC) was “remain unchanged”. The “LRP5/6 on the cardiac membrane” value in assay [3] (STZ diabetic mice, heart, Western blot) is reported as “STZ-induced downregulation of LRP5/6 in diabetic cardiac membranes can be inhibited”. Moreover, the “translocation of insulin receptors on the cardiac membrane or in the plasma” value in assay [3] (substance alone (FIG. 19G)) is given as “does not induce translocation of insulin receptors”. In addition, the “Dkk1-induced translocation of β-arrestin1/2” value with β-arrestin1/2 is given as “prevent the above translocation changes of β-arrestin1/2; also recorded: prevents the translocation of β-arrestin1/2 into cells”. The “γH2AX signaling enhanced by H2O2 in the presence of Dkk1” value in the assay with HUVEC cells (Dkk1 then H2O2 50 μM) was “significantly attenuated”. In the assay with HUVEC cells (H2O2 50 μM, without Dkk1), the “H2O2-induced γH2AX activation” value was “does not prevent H2O2-induced γH2AX activation”. Moreover, in the assay with HUVEC cells (no Dkk1, no H2O2), the “γH2AX response by the substance itself” value was “does not elicit γH2AX responses”. The “Dkk1-induced γH2AX activation” value with HUVEC cells (pretreatment with MDC or LRP6N protein) is on record as “attenuated; also recorded: prevents”. For the same molecule, the “Dkk1-induced endocytosis / downregulation of membrane LRP6 and Kremen2” value with LRP6 and Kremen2 was “prevents this phenomenon”.
